Data on 54 molecules can be found in the SangsterLogP compilation.

Data set [1] can be described thus: method code SF-HPLC, from DOI: 10.1002/jccs.199500138.
Data set [2] in a line: method code SF-AS, from DOI: 10.1016/j.ejmech.2011.02.056, PMID: 21420207.
Data set [3] can be described thus: method code SF-HPLC, from DOI: 10.1021/jm00169a024, PMID: 2194033. As to conditions: pH 7.4.
A short description of data set [4]: method code SF-CR+AS, from DOI: 10.1007/bf00500994, PMID: 4267539. As to conditions: pH 7.4.
Data set [5] in a line: method code SF-HPLC, from DOI: 10.1002/jlac.1995199512306.
Data set [6] can be described thus: method code SF-RC, from DOI: 10.1023/a:1015867608405, PMID: 1614980. As to conditions: pH 7.4.
Data set [7] is described as follows: method code SF-GLC, from DOI: 10.1002/jps.2600620103, PMID: 4734195.
Data set [8] can be described thus: method code SF-AS, from DOI: 10.1002/jps.2600710122.
Assay in data set [9]: not given
The source holds these as a separate data set.

Assay in data set [10]: not given
The source holds these as a separate data set.

The nature of data set [11]: method code SF, from PMID: 26783178.
Assay in data set [12]: not given
The source holds these as a separate data set.

Data set [13] in a line: method code HPLC, from DOI: 10.1016/j.bmcl.2004.01.062, PMID: 15026043. As to conditions: pH 5.5.
Assay in data set [14]: not given
This is another data set of the same source.

Assay in data set [15]: not given
The source holds these as a separate data set.

Assay in data set [16]: not given
The source holds these as a separate data set.

Data set [17] is described as follows: method code SF-HPLC, from DOI: 10.2174/1871523013666141114203105, PMID: 25403255. The following applies: pH 7.4.
The nature of data set [18]: method code SF, from DOI: 10.1515/znc-1979-1128. The following applies: pH 7.4.
Data set [19] in a line: method code SF-AS, from DOI: 10.1021/jm0104926, PMID: 11960499.
Data set [20] in a line: method code SF-HPLC, from DOI: 10.1016/0378-5173(91)90200-8. The following applies: pH 7.4.

Square brackets hold non-standard residues; d marks the D form. Peptide text beside a SMILES is read from it. NMeF = CN[CH](Cc1ccccc1)C(=O)O

As usually defined, the logP is the decadic logarithm of the partition coefficient of the neutral form, usually between octanol and water. A low value points to lower lipophilicity. In general, logD refers to lipophilicity at a set pH, counting ionised and neutral species. Higher therefore signals a more lipophilic compound.

On to `CC(=O)O[C@@H]1C[C@@H]([C@@H](C)CC/C=C(\C)C(=O)O)[C@]2(C)CC=C3C(=CCC4C(C)(C)[C@H](O)CC[C@@]34C)[C@@]12C` (some centres undefined), for which, in data set [1], the logP came out at 2.71.

Regarding `CCCCCCCCCCCC(=O)N[C@H]1C[C@H](O[C@H]2C[C@](O)(C(=O)CO)Cc3c(O)c4c(c(O)c32)C(=O)c2c(OC)cccc2C4=O)O[C@@H](C)[C@H]1O`, the logP in [2] is 1.96.

Regarding `CCN1CC(C(O)[C@H](CC2CCCCC2)NC(=O)[C@H](Cc2cnc[nH]2)NC(=O)[C@@H](CC(=O)N(C)CCOCOC)Cc2ccccc2)OC1=O` (some centres undefined), the logD in data set [3] came out at 2.49.

Molecule `OCC(Cl)(Cl)Cl` gave a logD in data set [4] of 1.42.

On to `CCCC`, for which the logP is 2.74.

Molecule `Cc1cn(C2CC(N=[N+]=[N-])C(COP(=O)(OCc3cccc([N+](=O)[O-])c3)OCC3OC(n4cc(C)c(=O)[nH]c4=O)CC3N=[N+]=[N-])O2)c(=O)[nH]c1=O` (centres undefined) had a logP in data set [5] of 0.99.

`CNC(=O)C(Cc1ccccc1)N(C)C(=O)C(Cc1ccccc1)N(C)C(=O)C(Cc1ccccc1)N(C)C(C)=O` (centres undefined) (Ac-[NMeF]-[NMeF]-[NMeF]-NHMe; configuration not given here) registered a logD in data set [6] of 3.24.

`OCC(Cl)Cl`: in data set [7], the logP stood at 0.37.

Molecule `CC(=O)Nc1n[nH]c(NC(C)=O)n1` gave a logP in [8] of -1.01.

In the case of `COc1ccc(C(=O)C2c3cccc(O)c3C(=O)c3c(O)cccc32)cc1`, the logP in [9] is 3.74.

`CC1=C(C/C=C(\C)CCC[C@H](C)CCC[C@H](C)CCCC(C)C)C(=O)c2ccccc2C1=O` gave a logP in [10] of 11.7.

Molecule `CC(=O)NC(Cc1ccccc1)C(=O)NC(Cc1ccccc1)C(=O)N(C)C(Cc1ccccc1)C(N)=O` (stereo not drawn) (Ac-Phe-Phe-[NMeF]-NH2; configuration not given here) returned a logD in data set [6] of 2.63.

In data set [11], `Cc1ccc(N2C(=O)[C@H](CCCNS(=O)(=O)c3ccc(OC(F)(F)F)cc3)[C@H]2c2ccc([N+](=O)[O-])cc2)cc1` registered a logP of 4.55.

Consider `CO[C@@H]1[C@@H](O[C@@H]2O[C@H](C)[C@@H](O)[C@H](N(C)C)[C@H]2O)[C@@H](CC=O)C[C@@H](C)C(=O)/C=C\[C@H]2O[C@H]2C[C@@H](C)OC(=O)C[C@H]1OC(C)=O`, for which the logP in data set [12] is 0.3.

For the molecule `O=C1[C@H](CC[C@H](O)c2ccc(F)cc2)[C@@H](c2ccc(O)cc2)N1c1ccc(F)cc1`, the logP in [11] was 3.64.

In data set [9], `COc1ccc(C(=O)C2c3cccc(O)c3C(=O)c3c(O)cccc32)cc1OC` yielded a logP of 3.45.

The molecule `CC[C@H]1OC(=O)C[C@@H](O)[C@H](C)[C@@H](O[C@@H]2O[C@H](C)C[C@H](N(C)C)[C@H]2O)[C@@H](CC=O)C[C@@H](C)C(=O)/C=C/[C@]2(C)O[C@H]2[C@@H]1C` yielded a logP in [12] of 2.19.

In turn, `CC(C)OC(=O)C(Cc1ccc(OC(=O)N(C)C)cc1)NC(=O)C1N(S(=O)(=O)c2cnn(C)c2)CSC1(C)C` (centres undefined) displayed a logD in data set [13] of 2.46.

In [5], `Cc1cn(C2CC(N=[N+]=[N-])C(COP(=O)(OCc3ccccc3)OCC3OC(n4cc(C)c(=O)[nH]c4=O)CC3N=[N+]=[N-])O2)c(=O)[nH]c1=O` (centres undefined) had a logP of 1.34.

In data set [14], `C=CCBr` gave a logP of 1.9.

For the molecule `CC(=O)OC1CCC2(C)C3=CCC4(C)C(C(C)CCC=C(C)C(=O)O)CC(O)C4(C)C3=CCC2C1(C)C` (centres undefined), the logP in data set [1] was determined as 2.72.

Molecule `ClC(Br)Br` gave a logP in data set [15] of 2.24.

In data set [7], `CC(O)C(F)(F)F` (centres undefined) displayed a logP of 0.71.

The molecule `CCCCCCCCc1ccc(OCC(=O)Cn2cc(C(=O)OC)c3cc(C(=O)O)ccc32)cc1` displayed a logP in data set [16] of 6.2.

Regarding `CCN1CC(C(O)[C@H](CC2CCCCC2)NC(=O)[C@H](Cc2cnc[nH]2)NC(=O)[C@@H](Cc2ccc(OC)cc2)NC(=O)N2CCOCC2)OC1=O` (some centres undefined), in data set [3], the logD came to 2.11.

In [17], `C=CCc1ccc(OC(=O)COC(=O)Cc2ccccc2Nc2c(Cl)cccc2Cl)c(OC)c1` had a logD of 5.13.

`CCN1CC(C(O)[C@H](CC2CCCCC2)NC(=O)[C@H](Cc2cnc[nH]2)NC(=O)[C@@H](CC(=O)N(C)CCOC)Cc2ccccc2)OC1=O` (some centres undefined): the logD in [3] was 2.45.

For `ClC(Cl)(Cl)Cl`, the logP was 2.59.

Turning to `CN(C)C(=O)Oc1ccc(CC(NC(=O)C2N(S(=O)(=O)c3cnn(C)c3)CSC2(C)C)C(=O)OCC(C)(C)C)cc1` (centres undefined), in data set [13], the logD is 3.42.

`CC(=O)OCCCCOC(C)=O` showed a logP in [14] of 0.01.

Molecule `CC1=C(C)C(O)N(c2ccc(C)c(C)c2)C1=O` (centres undefined) displayed a logD in [18] of 2.36.

As for `COc1cc(C=O)ccc1OC(=O)COC(=O)Cc1ccccc1Nc1c(Cl)cccc1Cl`, the logD in [17] turned out to be 4.86.

On to `O=CC(Cl)(Cl)Cl`, for which the logD in data set [4] was determined as 1.61.

For the molecule `CCCCCCCCc1ccc(OCC(=O)Cn2ccc3cc(C(=O)O)ccc32)cc1`, the logP in data set [16] was determined as 6.3.

In data set [19], `FC(F)(C(Cl)Br)C1N=N1` (centres undefined) yielded a logP of 1.9.

On to `COc1ccccc1OC(=O)COC(=O)Cc1ccccc1Nc1c(Cl)cccc1Cl`, for which the log distribution coefficient (logD) in data set [17] was determined as 4.6.

Molecule `CC(=CCCC(C)C1CC(O)C2(C)C3=CCC4C(C)(CCC(O)C4(C)C)C3=CCC12C)C(=O)O` (centres undefined) registered a logP in data set [1] of 2.69.

For `CCc1ccc(S(=O)(=O)NCCCC2C(=O)N(c3ccc(C)cc3)C2c2ccc(NS(C)(=O)=O)cc2)cc1` (centres undefined), in data set [11], the lipophilicity (logP) amounted to 3.62.

`ClC(Cl)Br` gave a logP in data set [15] of 2.1.

With `CCCCCCCCc1ccc(OCC(=O)Cn2cc(C(=O)C(C)C)c3cc(C(=O)O)ccc32)cc1`, the logP in [16] was 6.6.

With `CC(=O)N(C)C(Cc1ccccc1)C(=O)N(C)C(Cc1ccccc1)C(=O)N(C)C(Cc1ccccc1)C(N)=O` (centres undefined) (Ac-[NMeF]-[NMeF]-[NMeF]-NH2; configuration not given here), in data set [6], the logD was found to be 2.92.

In data set [20], `CCC(C(=O)OCc1ccc(COC(=O)C(CC)C(COC(=O)CC(=O)OC)Cc2cncn2C)cc1)C(COC(=O)CC(=O)OC)Cc1cncn1C` (centres undefined) came in with a logD of 2.76.

`Nc1nc(NC(=O)C(F)(F)C(F)(F)C(F)(F)F)n[nH]1` displayed a logP in data set [8] of 1.54.

The molecule `CCC(C(=O)OCc1ccc(COC(=O)C(CC)C(COC(C)=O)Cc2cncn2C)cc1)C(COC(C)=O)Cc1cncn1C` (centres undefined) came in with a logD in data set [20] of 3.04.

Regarding `CCCOc1ccc(C(=O)C2c3cccc(O)c3C(=O)c3c(O)cccc32)cc1`, the logP in data set [9] stood at 3.44.

In data set [12], `CC[C@H]1OC(=O)[C@H](C)[C@@H](O[C@H]2C[C@@](C)(OC)[C@@H](O)[C@H](C)O2)[C@H](C)[C@@H](O[C@@H]2O[C@H](C)C[C@H](N(C)C)[C@H]2O)[C@](C)(O)C[C@@H](C)C(=O)[C@H](C)[C@@H](O)[C@]1(C)O` had a logP of 3.06.

`CCOC(=O)CC(Cc1cncn1C)C(CC)C(=O)OCc1ccc(COC(=O)C(CC)C(CC(=O)OCC)Cc2cncn2C)cc1` (centres undefined) came in with a logD in data set [20] of 4.08.

For the molecule `Cc1cn(C2CC(N=[N+]=[N-])C(COP(=O)(OCc3ccc(C#N)cc3)OCC3OC(n4cc(C)c(=O)[nH]c4=O)CC3N=[N+]=[N-])O2)c(=O)[nH]c1=O` (centres undefined), the logP in data set [5] came to 0.91.

The molecule `CCCCCCCCCCCCCCCC(=O)N[C@H]1C[C@H](O[C@H]2C[C@](O)(C(=O)CO)Cc3c(O)c4c(c(O)c32)C(=O)c2c(OC)cccc2C4=O)O[C@@H](C)[C@H]1O` had a logP in data set [2] of 2.19.

On to `C=C1CC[C@H](O)C/C1=C/C=C1\CCC[C@]2(C)[C@@H]([C@H](C)CCCC(C)C)CC[C@@H]12`, for which, in [10], the logP is 10.2.

For the molecule `CCCCCCCC(=O)N[C@H]1C[C@H](O[C@H]2C[C@](O)(C(=O)CO)Cc3c(O)c4c(c(O)c32)C(=O)c2c(OC)cccc2C4=O)O[C@@H](C)[C@H]1O`, in [2], the logP is 1.81.

`c1ncncn1`: in data set [18], the logD was -0.73.

For `CC(C)CCC[C@@H](C)[C@H]1CC[C@H]2C3=CC=C4C[C@@H](O)CC[C@]4(C)[C@H]3CC[C@]12C`, the logP in data set [10] was found to be 8.65.

In data set [19], `FC(Cl)C(F)(F)C1(Br)N=N1` (centres undefined) came in with a logP of 2.18.
